Patent US11186564B2, “Dual NAV1.2/5HT2a inhibitors for treating CNS disorders” (Sunovion Pharmaceuticals Inc., priority 2016, dated 2021)
Read-outs that look alike come from different tables or passages of the source.

Columns and labels:
[1] = molecular target: T1, recombinant human serotonin receptor 5-HT2A (Homo sapiens, UniProt P28223); assay: 5-HT2A antagonist Ca2+ assay in CHO-K1 cells (method A aequorin luminescence / method B FLIPR fluorescence); format: cell-based; conditions: antagonist mode vs EC80 of reference agonist, method A or B
T1 construct: expressed in transfected cells; method B: loaded with Ca2+ dye
T1 sequence (P28223 whole entry): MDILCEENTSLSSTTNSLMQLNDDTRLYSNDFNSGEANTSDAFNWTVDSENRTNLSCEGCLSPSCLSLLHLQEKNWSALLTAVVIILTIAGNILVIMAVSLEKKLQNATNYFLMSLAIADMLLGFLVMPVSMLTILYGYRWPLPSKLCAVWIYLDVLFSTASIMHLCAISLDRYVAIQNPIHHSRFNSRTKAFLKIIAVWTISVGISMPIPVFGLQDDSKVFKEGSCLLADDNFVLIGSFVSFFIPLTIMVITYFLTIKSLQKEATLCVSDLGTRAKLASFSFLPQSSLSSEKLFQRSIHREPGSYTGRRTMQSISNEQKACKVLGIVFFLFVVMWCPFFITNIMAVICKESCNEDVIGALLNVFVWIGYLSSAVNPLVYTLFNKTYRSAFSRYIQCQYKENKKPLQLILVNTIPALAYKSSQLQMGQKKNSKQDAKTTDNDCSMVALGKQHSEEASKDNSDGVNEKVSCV
Procedure, shortened: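 IC50 was obtained by nonlinear regression of percent inhibition of the EC80 agonist Ca2+ response in CHO-K1 cells stably expressing human 5-HT2A. The readout was aequorin luminescence with agonist injected 15 min after compound (A), or Ca2+-dye fluorescence on FLIPR with serotonin as agonist (B).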

[2] = molecular target: human sodium channel NaV1.2 (Homo sapiens, UniProt Q99250); assay: NaV1.2 inhibition, automated patch-clamp (Q-Patch HTX), slow inactivated state (state C); format: cell-based; conditions: for inhibition at 1 µM: 1 μM compound, read-out: NaV1.2 (% inh), 1 μM; for IC50: read-out: NaV1.2 IC50; for inhibition at 10 µM: read-out: NaV1.2 (% inh), 10 μM
Sequence of human sodium channel NaV1.2 (Q99250 whole entry): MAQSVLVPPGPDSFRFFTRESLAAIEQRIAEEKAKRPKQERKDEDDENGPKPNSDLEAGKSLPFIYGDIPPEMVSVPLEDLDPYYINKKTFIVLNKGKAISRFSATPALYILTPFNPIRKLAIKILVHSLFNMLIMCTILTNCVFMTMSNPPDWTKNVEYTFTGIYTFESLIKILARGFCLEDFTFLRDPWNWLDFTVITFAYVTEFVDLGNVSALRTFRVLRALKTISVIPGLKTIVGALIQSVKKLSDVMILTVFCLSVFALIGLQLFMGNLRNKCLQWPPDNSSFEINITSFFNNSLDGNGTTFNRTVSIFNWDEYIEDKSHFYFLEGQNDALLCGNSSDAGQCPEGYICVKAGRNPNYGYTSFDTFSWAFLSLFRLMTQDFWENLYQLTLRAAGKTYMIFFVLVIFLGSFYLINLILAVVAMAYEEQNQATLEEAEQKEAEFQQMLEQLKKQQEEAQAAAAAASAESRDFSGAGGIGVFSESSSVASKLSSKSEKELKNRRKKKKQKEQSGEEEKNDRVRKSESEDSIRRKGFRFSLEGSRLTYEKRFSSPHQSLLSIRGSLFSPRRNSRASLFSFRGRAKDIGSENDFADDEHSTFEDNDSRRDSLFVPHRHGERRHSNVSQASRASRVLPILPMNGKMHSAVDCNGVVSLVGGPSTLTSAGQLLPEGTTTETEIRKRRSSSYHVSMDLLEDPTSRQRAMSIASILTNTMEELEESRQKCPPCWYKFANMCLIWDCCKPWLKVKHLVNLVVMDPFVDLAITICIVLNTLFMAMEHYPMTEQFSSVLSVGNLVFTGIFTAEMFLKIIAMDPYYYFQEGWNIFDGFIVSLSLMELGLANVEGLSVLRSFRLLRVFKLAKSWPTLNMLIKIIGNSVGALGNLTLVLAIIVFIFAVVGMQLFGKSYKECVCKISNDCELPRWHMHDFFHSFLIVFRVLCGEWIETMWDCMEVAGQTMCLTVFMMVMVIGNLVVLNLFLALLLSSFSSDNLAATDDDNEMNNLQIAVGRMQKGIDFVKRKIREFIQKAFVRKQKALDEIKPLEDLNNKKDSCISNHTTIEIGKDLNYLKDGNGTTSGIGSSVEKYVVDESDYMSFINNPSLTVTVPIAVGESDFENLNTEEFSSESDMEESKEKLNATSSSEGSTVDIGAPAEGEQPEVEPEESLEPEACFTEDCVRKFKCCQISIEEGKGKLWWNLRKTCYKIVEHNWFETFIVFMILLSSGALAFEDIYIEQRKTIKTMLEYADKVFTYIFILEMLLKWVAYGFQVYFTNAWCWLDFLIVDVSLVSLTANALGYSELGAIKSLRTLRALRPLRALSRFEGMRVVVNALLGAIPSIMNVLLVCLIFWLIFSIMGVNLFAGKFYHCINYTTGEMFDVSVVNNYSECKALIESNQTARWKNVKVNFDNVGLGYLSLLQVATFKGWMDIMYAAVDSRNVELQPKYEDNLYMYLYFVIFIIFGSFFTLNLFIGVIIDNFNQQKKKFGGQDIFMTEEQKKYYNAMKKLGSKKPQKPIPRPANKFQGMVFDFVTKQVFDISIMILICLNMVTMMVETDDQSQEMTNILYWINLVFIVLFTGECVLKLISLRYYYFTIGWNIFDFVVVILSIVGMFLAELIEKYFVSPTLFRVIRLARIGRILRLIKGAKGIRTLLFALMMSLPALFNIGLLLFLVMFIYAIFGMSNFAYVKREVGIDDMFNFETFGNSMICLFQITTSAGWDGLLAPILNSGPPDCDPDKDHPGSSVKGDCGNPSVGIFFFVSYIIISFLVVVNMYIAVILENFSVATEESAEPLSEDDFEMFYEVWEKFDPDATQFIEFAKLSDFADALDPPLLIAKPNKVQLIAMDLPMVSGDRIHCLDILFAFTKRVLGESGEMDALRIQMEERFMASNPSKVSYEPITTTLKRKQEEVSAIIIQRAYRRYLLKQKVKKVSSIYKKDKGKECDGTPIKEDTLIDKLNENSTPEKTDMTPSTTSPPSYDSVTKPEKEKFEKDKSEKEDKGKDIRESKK
Excerpt: In vitro method for NaV1.2 inhibition assays: The methods utilized to assess the inhibitory activity of compounds on NaV1.2 were based on the methods described by Liu et al. [Liu Y, Beck E J, & Flores C M (2011): Validation of a patch clamp screening protocol that simultaneously measures compound activity in multiple states of the voltage-gated sodium channel Nav1.2. Assay Drug Development Technology 9, 628-634]. For these electrophysiology assays, a cell line (Chinese Hamster Ovarian K-1 cells (CHO K-1)) engineered to stably express human sodium channel NaV1.2 was purchased from Millipore Corporation (catalog no. CYL3023). The electrophysiology measurements were performed using automated patch-clamp methods on a Q-Patch HTX instrument by scientists at Evotec AG under contract with Sunovion.
The solutions utilized for the Qpatch experiments were similar buffered solutions to those described by Liu et al. [Liu Y, Beck E J, & Flores C M (2011)]. The extracellular solution contained 140 millimolar sodium chloride, 4 millimolar potassium chloride, 2 millimolar calcium chloride, 1 millimolar magnesium chloride, 10 millimolar 4-(2-hydroxyethyl)-1-piperazineethanesulfonic acid (HEPES), and 10 millimolar glucose (pH adjusted to 7.4 with sodium hydroxide). The intracellular solution contained 100 millimolar cesium fluoride, 45 millimolar cesium chloride, 10 millimolar HEPES, 5 millimolar ethylene glycol tetraacetic acid (EGTA), and 5 millimolar glucose (pH adjusted to 7.2 with cesium hydroxide).
The biophysical experiments of Lui et al. [Liu Y, Beck E J, & Flores C M (2011)] were replicated to assess the fast, slow and total inactivation characteristics of the human Nav1.2 channel
Based upon results from studies of the fast, slow and total inactivation characteristics of the human Nav1.2 channel, a voltage protocol involving a sequence of consecutive pulses of current was used to measure channel activity in several states [Liu Y, Beck E J, & Flores C M (2011)]. The monolayer of CHO K-1 cells stably expressing human sodium channel NaV1.2 (hNaV1.2 CHO cells) was maintained in the Qpatch instrument at a potential of −100 millivolts (mV) except when the voltage protocol was being executed. The first pulse in the protocol involved a 100 millisecond depolarization to 0 mV to enable measurement of channel availability in the closed state (state A). The potential was then maintained at −90 mV for 15 milliseconds, followed by a five millisecond period of depolarization to 0 mV to enable measurement of channel availability after partial recovery from fast inactivation (state B). Next, the potential was maintained at −90 mV for 300 milliseconds, followed by ten seconds at −50 mV, 15 milliseconds at −90 mV, and finally another five millisecond period of depolarization to 0 mV to enable measurement of channel availability after additional recovery from fast inactivation and significant entry into the slow inactivated state (state C). Finally, after an additional 300 millisecond period at −90 mV, another five millisecond period of depolarization to 0 mV was employed to enable measurement of channel availability after partial recovery from the slow inactivated state (state D). Measurements of activity at state C were used to assess the activity of the NaV1.2 channel in the slow inactivated state. Comparison of activity after addition of test compounds or reference compounds with activity after addition of vehicle only provided a measure of percent remaining activity from which percent inhibition was calculated. […] A slight modification of this protocol was utilized to provide measurements as a function of compound concentration, which enabled IC50 values to be determined. IC50 values were calculated by non-linear least squares regression of the data (percent inhibition of ion channel NaV1.2 activity in the slow inactivated state) onto equation (1): % inhibition=100%/(1+(IC50/[compound]) equation (1)
J Pharmacol Exp Ther. 2008 July; 326(1):89-99.].

[3] = hNaV1.2 CHO cells, slow inactivated state
[4] = 10 μM compound, hNaV1.2 CHO cells, slow inactivated state

Row | IC50 ([1]; read-out: 5HT2A IC50) | inhibition at 1 µM [2, 3] | Structure (SMILES) | IC50 [2, 3] | also measured
1 | 0.13 µM | 32% | Fc1ccc(OC2CCN(CC3COCc4ccccc43)CC2)cc1 (stereo not drawn) [Example 160, 4-(4-fluorophenoxy)-1-(isochroman-4-ylmethyl)piperidine] |  | 
2 |  |  | OC(COC1CCCCC1)CN1[C@@H]2CC[C@H]1CN(c1ccccc1)C2 (stereo partly drawn) [Example 286, 1-(cyclohexyloxy)-3-((1R,5S)-3-phenyl-3,8-diazabicyclo[3.2.1]octan-8-yl)propan-2-ol] | 1.25 µM | IC50 ([1]; 5HT2A IC50, μM): 0.01 µM
3 |  |  | OC(COC1CCCCC1)CN1CCC2(CCc3ccccc32)CC1 (stereo not drawn) [Example 400, 1-(cyclohexyloxy)-3-(2,3-dihydrospiro[indene-1,4′-piperidin]-1′-yl)propan-2-ol] |  | IC50 ([1]; 5HT2A IC50, μM): 2.29 µM; inhibition at 10 µM ([2]; CHO): 102%
4 | 0.06 µM | 50% | COc1ccccc1OC1CCN(CC2Cc3ccccc3C2)CC1 [Example 136, 1-((2,3-dihydro-1H-inden-2-yl)methyl)-4-(2-methoxyphenoxy)piperidine] |  | 
5 | 0.15 µM | 9% | COc1ccc2c(c1)C(CN1CCC(Oc3ccccn3)CC1)CC2 (stereo not drawn) [Example 95, 2-((1-((6-methoxy-2,3-dihydro-1H-inden-1-yl)methyl)piperidin-4-yl)oxy)pyridine] |  | 
6 | 0.69 µM |  | COc1cccc(CN2CCC3(CCc4ccccc4O3)CC2)c1 [Example 417, 1′-(3-methoxybenzyl) spiro[chromane-2,4′-piperidine]] |  | inhibition at 10 µM [2, 4]: 94%
7 | 1.86 µM | 18% | c1ccc2c(c1)CCC1(CCN(CC3Cc4ccncc4C3)CC1)O2 (stereo not drawn) [Example 412, 1′-((6,7-dihydro-5H-cyclopenta[c]pyridin-6-yl)methyl)spiro[chromane-2,4′-piperidine]] |  | 
8 | 0.29 µM |  | COc1ccc2c(c1)C(CN1CC3(CC(Oc4ccc(F)cc4)CO3)C1)CC2 (stereo not drawn) [Example 369, 7-(4-fluorophenoxy)-2-((6-methoxy-2,3-dihydro-1H-inden-1-yl)methyl)-5-oxa-2-azaspiro[3.4]octane] |  | inhibition at 10 µM [2, 4]: 64%
9 | 0.31 µM | -2% | N#Cc1ccc(OC2CCN(CC3CCOc4ccccc43)CC2)cc1 (stereo not drawn) [Example 166, 4-((1-(chroman-4-ylmethyl)piperidin-4-yl)oxy)benzonitrile] |  | 
10 | > 16.7 µM | 36% | O=C1c2ccccc2CCN1CCN1C[C@@H]2C[C@H](C1)N(c1ccccc1)C2 [Example 329, 2-(2-((1S,5R)-6-phenyl-3,6-diazabicyclo[3.2.1]octan-3-yl)ethyl)-3,4-dihydroisoquinolin-1(2H)-one] |  | 
11 | 0.004 µM | -4% | c1ccc2c(c1)CCC2CN1CCC2(CCc3ncccc3O2)CC1 (stereo not drawn) [Example 403, 1-((2,3-dihydro-1H-inden-1-yl)methyl)-3′,4′-dihydrospiro[piperidine-4,2′-pyrano[3,2-b]pyridine]] |  | 
12 | 0.19 µM | 27% | O=C1c2ccccc2CCN1CCN1CCCC(Oc2ccc(F)cc2)CC1 (stereo not drawn) [Example 274, 2-(2-(4-(4-fluorophenoxy)azepan-1-yl)ethyl)-3,4-dihydroisoquinolin-1(2H)-one] |  | 
13 | 0.05 µM |  | O=C1CCC(c2ccc(F)cc2)=NN1CN1CCN(c2cccc(Cl)c2)CC1 [Example 62, 2-((4-(3-chlorophenyl)piperazin-1-yl)methyl)-6-(4-fluorophenyl)-4,5-dihydropyridazin-3(2H)-one] | 5.27 µM | 
14 | 0.62 µM | 48% | COc1ccccc1OC1COC2(C1)CN(CC1CCc3ccccc31)C2 (stereo not drawn) [Example 363, 2-((2,3-dihydro-1H-inden-1-yl)methyl)-7-(2-methoxyphenoxy)-5-oxa-2-azaspiro[3.4]octane] |  | 
15 | 0.17 µM |  | COc1cccc(OCCN2CCC(Oc3ccccc3)CC2)c1 [Example 224, 1-(2-(3-methoxyphenoxy)ethyl)-4-phenoxypiperidine] |  | inhibition at 10 µM [2, 4]: 81%

Row | Structure (SMILES) | IC50 ([1]; read-out: 5HT2A IC50) | inhibition at 1 µM [2, 3] | IC50 [2, 3] | also measured
16 | Cc1cccc(N2CCN(CC(O)COC3COc4ccccc43)CC2)c1C (stereo not drawn) [Example 80, 1-((2,3-dihydrobenzofuran-3-yl)oxy)-3-(4-(2,3-dimethylphenyl)piperazin-1-yl)propan-2-ol] | 0.06 µM |  | 0.17 µM | 
17 | Fc1ccc(OC2CCN(CCC3CCc4cnccc43)CC2)cc1 (stereo not drawn) [Example 173, 5-(2-(4-(4-fluorophenoxy)piperidin-1-yl)ethyl)-6,7-dihydro-5H-cyclopenta[c]pyridine] | 0.01 µM |  | 3.17 µM | 
18 | c1ccc([C@@H]2COC3(CCN(C[C@@H]4CCc5ccccc54)CC3)C2)cc1 (single isomer, unassigned) [Compound 376] | 0.02 µM |  | 0.51 µM | 
19 | O=C1c2ccccc2CCN1CCN1C[C@@H]2CC[C@H]1CN2c1ccccc1 [Example 316, 2-(2-((1S,4S)-5-phenyl-2,5-diazabicyclo[2.2.2]octan-2-yl)ethyl)-3,4-dihydroisoquinolin-1(2H)-one] | 3.17 µM |  | 0.08 µM | 
20 | COc1ccccc1OC1CCN(CC2c3ccccc3OC2(C)C)CC1 (stereo not drawn) [Example 129, 1-((2,2-dimethyl-2,3-dihydrobenzofuran-3-yl)methyl)-4-(2-methoxyphenoxy)piperidine] | 0.4 µM |  | 1.06 µM | 
21 | COc1ccc2c(c1)C(CN1CCC3(CC1)OCc1ccccc13)CC2 (stereo not drawn) [Example 390, 1′-((6-methoxy-2,3-dihydro-1H-inden-1-yl)methyl)-3H-spiro[isobenzofuran-1,4′-piperidine]] | 0.75 µM |  | 0.59 µM | 
22 | OC(COC1CCCCC1)CN1CCC2(CCN(c3ccccc3)CC2)C1 (stereo not drawn) [Example 350, 1-(cyclohexyloxy)-3-(8-phenyl-2,8-diazaspiro[4.5]decan-2-yl)propan-2-ol] | 0.61 µM |  | 1.68 µM | 
23 | c1ccc([C@@H]2COC3(CCN(C[C@H]4CCc5ccccc54)CC3)C2)cc1 (single isomer, unassigned) [Compound 379] | 0.04 µM |  | 0.29 µM | 
24 | COc1ccccc1OC1CCC2(CCN(CC3CCc4cccnc43)C2)C1 (stereo not drawn) [Example 373, 2-((6,7-dihydro-5H-cyclopenta[b]pyridin-7-yl)methyl)-7-(2-methoxyphenoxy)-2-azaspiro[4.4]nonane] | 0.44 µM |  | 2.42 µM | 
25 | OC(COC1CCCCC1)CN1C[C@@H]2C[C@H](C1)N(c1ccccc1)C2 (stereo partly drawn) [Example 331, 1-(cyclohexyloxy)-3-((1S,5R)-6-phenyl-3,6-diazabicyclo[3.2.1]octan-3-yl)propan-2-ol] | 1.64 µM |  | 0.31 µM | 
26 | OC(CO[C@H]1CCc2ccccc21)CN1CC[C@@H](Oc2ccc(F)cc2)C1 (stereo partly drawn) [Example 42, 1-(((S)-2,3-dihydro-1H-inden-1-yl)oxy)-3-((R)-3-(4-fluorophenoxy)pyrrolidin-1-yl)propan-2-ol] | 0.83 µM |  | 0.75 µM | 
27 | Nc1ccc2c(c1)C(CN1CCC(Oc3ccc(F)cc3)CC1)CC2 (stereo not drawn) [Example 115, 3-((4-(4-fluorophenoxy)piperidin-1-yl)methyl)-2,3-dihydro-1H-inden-5-amine] | < 0.001 µM |  | 2.58 µM | 
